From patent publication EP2926811A1, “ARTEMETHER-CONTAINING PHARMACEUTICAL COMPOSITION, PREPARATION, AND USE THEREOF” (Kunming Pharmaceutical Corp., priority 2012, dated 2014)
Where two headings read alike, the source gives them in different places.

Legend:
Assay type in all cases: cell-based
[1] = system: HL-60 cells; assay: modified MTT method, proliferation of HL-60 cells; conditions: Homo sapiens, read-out: IC50 on the growth of HL-60 cells
Protocol: (§1) Five test concentrations 2, 10, 50, 250 and 500 µM were set for each of five derivatives of artemisinin, artemether drug substance, artemisinin, dihydroartemisinin, artesunate were dissolved with dimethyl sulfoxide (DMSO), while the lyophilized powder of artemether was dissolved with normal saline (N.S.), followed by addition of a certain amount of RPMI 1640 complete culture solution to formulate a high-concentration solution, and each of the low-concentration solutions was formulated by proportionate dilution from the high-concentration solution.
(§2) The concentrations of DMSO contained in the solutions at the two relatively high concentrations 500 and 250 µM for the artemether drug substance, artemisinin, dihydroartemisinin, artesunate, used as solvent controls, were formulated with […] culture solution, at which time the test concentrations of DMSO were 1% and 0.5%. The concentrations of the excipients contained in the solutions at the two relatively high concentrations 500 and 250 µM for the preparation of lyophilized powder of artemether were used as solvent controls.
(§3) The positive control was an anti-cancer drug adriamycin (ADM), which was set at three test concentrations (final concentrations) of 0.1, 1 and 10 µg/ml. To ADM stock solution (1 mg/ml) a certain amount of PRMI 1640 complete culture solution was added, to formulate a high-concentration solution, and each of the low-concentration solutions were formulated by proportionate dilutions from the high-concentration solution.
(§4) HL-60: (human promyelocytic leukemia cell line); K562 (human chronic myelocytic leukemia cell line); HT-29 (human colon cancer cell line); PC-3 (human prostate cancer cell line); A549 (human non-small cell lung cancer cell line); MKN-28 (human gastric cancer cell line); Hep2 (human laryngeal cancer cell line), all of which were purchased from Cell Bank of Shanghai Institutes for Biological Sciences, the Chinese Academy of Sciences.
(§5) Influence of the five test samples on the proliferation of 7 human tumor cell lines was determined via a modified MTT method.
(§6) Cells in logarithmic growth phase were taken, adjusted to a certain concentration and then added into a 96 well culture plate. After culture of adherent cells for a period until adherence, the test samples were added; and for suspension cells, the test samples were added after inoculation. 5 test concentrations 2, 10, 50, 250 and 500 µM were set, with 3 parallel wells for each concentration, 10 µl/well; the solvent controls were 0.5% and 1% of isovolumetric DMSO, and the positive controls was ADM at 3 concentrations 0.1, 1 and 10 µg/ml. The samples were loaded followed by culture for a period of time in an incubator at 37°C, 5% CO2, followed by addition of MTT (5 mg/ml) at 20 µl/well, and continued to be cultured for a period of time and added with a three-combined solution [10% SDS - 5% isobutanol - 0.012 mol/L HCl (W/V/V)]. After dissolving in uniformity, it was continued to be placed in the incubator at 37°C, 5% CO2 for a period of time, and the OD value of each well was determined under a wavelength of 570 nm with a microplate reader, according to which the results were calculated.
(§7) The cellular proliferation inhibition rate was calculated in accordance with the following equation: Inhibition rate (%) = (OD valuecontrol well-OD valuesample well)/OD valuecontrol well × 100% [formula]
(§8) When the inhibition rate of DMSO on cells was more than 15%, calculation was carried out using the following equation: Inhibition rate (%) = (OD valuesolvent group-OD valueadministered well)/OD valuesolvent group × 100% [formula]
(§9) The inhibition rate was calculated by using Microsoft Excel 2003, and median inhibitory concentration IC50 was calculated with a LOGIT method, which was used as an indicator for judging the inhibitory capability.

[2] = system: PC-3 cells; assay: modified MTT method, proliferation of PC-3 cells; conditions: Homo sapiens, read-out: IC50 on the growth of PC-3 cells
Protocol: as §1, §2, §3, §4, §5, §6, §7, §8, §9

[3] = system: MKN-28 cells; assay: modified MTT method, proliferation of MKN-28 cells; conditions: Homo sapiens, MKN-28, 72 h, secondary screening
Protocol: as §1, §2, §3, §4, §5, §6, §7, §8, §9
(§10) According to the results of preliminary screening, further experiments were adjusted such that more sensitive cell lines were screened out. […]

[4] = system: K562 cells; assay: modified MTT method, proliferation of K562 cells; conditions: Homo sapiens, read-out: IC50 on the growth of K562 cells
Protocol: as §1, §2, §3, §4, §5, §6, §7, §8, §9

[5] = system: A549 cells; assay: modified MTT method, proliferation of A549 cells; conditions: Homo sapiens, read-out: IC50 on the growth of A549 cells
Protocol: as §1, §2, §3, §4, §5, §6, §7, §8, §9

[6] = system: Hep2 cells; assay: modified MTT method, proliferation of Hep2 cells; conditions: Homo sapiens, HEp-2, 72 h, secondary screening
Protocol: as §1, §2, §3, §4, §5, §6, §7, §8, §9, §10

[7] = system: HT-29 cells; assay: modified MTT method, proliferation of HT-29 cells; conditions: Homo sapiens
Protocol: as §1, §2, §3, §4, §5, §6, §7, §8, §9, §10

- IC50 ([1]; HL-60, 24 h, Batch 1, 24 h): > 1000 µM
- IC50 ([1]; HL-60, 24 h, Batch 2, 24 h): 74.4 µM
- IC50 ([1]; HL-60, 48 h, Batch 1, 48 h): > 1000 µM
- IC50 ([1]; HL-60, 48 h, Batch 2, 48 h): 16.3 µM
- IC50 ([1]; HL-60, 72 h, Batch 1, 72 h): > 1000 µM
- IC50 ([1]; HL-60, 72 h, Batch 2, 72 h): 116 µM
- IC50 ([2]; PC-3, 24 h, Batch 1, 24 h): 660 µM
- IC50 ([2]; PC-3, 24 h, Batch 2, 24 h): > 1000 µM
- IC50 ([2]; PC-3, 48 h, Batch 1, 48 h): > 1000 µM
- IC50 ([2]; PC-3, 48 h, Batch 2, 48 h): > 1000 µM
- IC50 ([2]; PC-3, 72 h, Batch 1, 72 h): 230 µM
- IC50 ([2]; PC-3, 72 h, Batch 2, 72 h): > 1000 µM
- IC50 ([3]; Average, read-out: IC50 on the growth of MKN-28 cells (72 h)): 16.2 µM
- IC50 ([3]; Batch 1, read-out: IC50 on the growth of MKN-28 cells (72 h)): 15.1 µM
- IC50 ([3]; Batch 2, read-out: IC50 on the growth of MKN-28 cells (72 h)): 17.1 µM
- IC50 ([3]; Batch 3, read-out: IC50 on the growth of MKN-28 cells (72 h)): 16.5 µM
- IC50 ([4]; K562, 24 h, Batch 1, 24 h): > 1000 µM
- IC50 ([4]; K562, 24 h, Batch 2, 24 h): 144 µM
- IC50 ([4]; K562, 24 h, Batch 3, 24 h): 146 µM
- IC50 ([4]; K562, 48 h, Batch 1, 48 h): 997 µM
- IC50 ([4]; K562, 48 h, Batch 2, 48 h): 28 µM
- IC50 ([4]; K562, 48 h, Batch 3, 48 h): 80.7 µM
- IC50 ([4]; K562, 72 h, Batch 1, 72 h): 492 µM
- IC50 ([4]; K562, 72 h, Batch 2, 72 h): 44.8 µM
- IC50 ([4]; K562, 72 h, Batch 3, 72 h): 60.5 µM
- IC50 ([5]; A549, 24 h, Batch 1, 24 h): > 1000 µM
- IC50 ([5]; A549, 24 h, Batch 2, 24 h): 935 µM
- IC50 ([5]; A549, 48 h, Batch 1, 48 h): > 1000 µM
- IC50 ([5]; A549, 48 h, Batch 2, 48 h): 221 µM
- IC50 ([5]; A549, 72 h, Batch 1, 72 h): > 1000 µM
- IC50 ([5]; A549, 72 h, Batch 2, 72 h): 192 µM
- IC50 ([7]; HT-29, 24 h, preliminary screening, Batch 1, 24 h, read-out: IC50 on the growth of HT-29 cells): 288 µM
- IC50 ([7]; HT-29, 24 h, preliminary screening, Batch 2, 24 h, read-out: IC50 on the growth of HT-29 cells): 280 µM
- IC50 ([7]; HT-29, 48 h, preliminary screening, Batch 1, 48 h, read-out: IC50 on the growth of HT-29 cells): 337 µM
- IC50 ([7]; HT-29, 48 h, preliminary screening, Batch 2, 48 h, read-out: IC50 on the growth of HT-29 cells): 433 µM
- IC50 ([7]; HT-29, 72 h, preliminary screening, Batch 1, 72 h, read-out: IC50 on the growth of HT-29 cells): 160 µM
- IC50 ([7]; HT-29, 72 h, preliminary screening, Batch 2, 72 h, read-out: IC50 on the growth of HT-29 cells): 258 µM
- IC50 ([7]; HT-29, 72 h, secondary screening, 72 h, Batch 1, read-out: IC50 on the growth of HT-29 cells (72 h)): 236 µM
- IC50 ([7]; HT-29, 72 h, secondary screening, 72 h, Batch 2, read-out: IC50 on the growth of HT-29 cells (72 h)): 173 µM
- IC50 ([7]; HT-29, 72 h, secondary screening, 72 h, Batch 3, read-out: IC50 on the growth of HT-29 cells (72 h)): 148 µM
- IC50 ([7]; HT-29, 72 h, secondary screening, 72 h, average, read-out: IC50 on the growth of HT-29 cells (72 h)): 143 µM
Structure (SMILES): C[C@H]1[C@@H](O)O[C@@H]2O[C@@]3(C)CC[C@H]4[C@H](C)CC[C@@H]1[C@@]24OO3 [dihydroartemisinin]
- IC50 ([6]; Batch 1, read-out: IC50 on the growth of Hep2 cells (72 h)): 114 µM
- IC50 ([6]; Batch 2, read-out: IC50 on the growth of Hep2 cells (72 h)): 88.2 µM
- IC50 ([6]; Batch 3, read-out: IC50 on the growth of Hep2 cells (72 h)): 126 µM
- IC50 ([6]; average, read-out: IC50 on the growth of Hep2 cells (72 h)): 92 µM
